Assay results as given in patent US10138292B2, “Cell culture medium” (BIOLAMINA AB, priority 2010, dated 2018).

What was measured:
human ES cells = assay: Cell adhesion assay, 1 hour (Example 1); format: cell-based; conditions: O3 medium without any additives, without Y-27632
Description: Ninety-six-well tissue cell culture plates were coated overnight at 4° C. with sterile solutions of the ECM proteins mouse LN-111 (Invitrogen), human recombinant LN-511, and human recombinant LN-521, all at a concentration of 30 μg/ml (5 μg/cm^2). For control cells, BD Matrigel™ hESC qualified (BD Biosciences) was used according to the manufacturer's instructions.
The assay was performed as described (Extracellular Matrix Protocols, 2000). Briefly, 96-well plates were coated by extracellular matrix proteins as described above and blocked by O3 medium containing bovine serum albumin. The ES cells were plated at a cell density of 600 cell/mm^2 upon extracellular matrix-coated plates and were left to adhere for either 1 hour or 1 day at the cell incubator. Non-adherent cells were washed away, and adherent cells were fixed for 20 min by 5% glutaraldehyde, stained by 0.1% Crystal Violet.

Oct4 and Nanog mRNA = assay: Real-time quantitative RT-PCR of pluripotency markers (Example 1); format: cell-based, human; conditions: after several passages
Description: Total RNA was isolated and cDNA was synthesized as described in Rodin et al., Nature Biotechnol., vol. 28, pp. 611-615 (2010). Real-time quantitative RT-PCR Taqman assays were performed using the Applied Biosystems 7300 Real-Time PCR System. All reactions were done in quadruplicate with predeveloped gene expression assay mix (Applied Biosystems) containing primers and a probe for the mRNA of interest. Additional reactions for each experiment included predeveloped gene expression assay mix for GAPDH, used to normalize the RNA input. All data were analyzed with 7300 System SDS Software version 1.4.

hES cells [1] = assay: Cell survival assay, 24 hours (Example 2); format: cell-based, human
Description: The survival assay was performed as described for the cell adhesion assay above, except that the cells were left in the cell incubator for 24 hours. For inhibition of survival assay, the cells were kept in a medium with function blocking antibodies at the concentrations recommended by the manufacturer or pathway inhibitors at concentrations indicated in the text for 30 minutes, and then plated on the coated dishes. All the experiments were performed in quadruplicate.
Pluripotent hES cells express α1, α5, β1, β2 and γ1 laminin chains. To compare the adhesion and clonal survival of hES cells plated from single cell suspension to different coating substrata, hES cells growing as monolayers on LN-511 or as clusters on a feeder layer were trypsinized into single cell suspension in O3 medium and plated on cell culture dishes coated with Matrigel, LN-111, LN-511, LN-521 or a mixture of LN-511 and LN-521, in the absence or presence of a ROCK inhibitor (Y-27632) and analyzed after 24 hours.

[2] = system: phosphorylated myosin light chain (P-MLC); assay: Western blot of phosphorylated myosin light chain; format: cell-based, human; conditions: one and six hours after plating
Description: HS 181 cells were trypsinized into single cell suspension as described above. For inhibition experiments, the cells were kept in O3 medium with blocking antibodies or pathway inhibitors for 30 minutes and then 450K cells were plated on 35 mm dishes precoated with the appropriate matrix coating. For other experiments, same number of cells was plated directly after trypsinization. […] After two washings in ice-cold PBS, the plates with cells were snap frozen in liquid nitrogen and stored at −80° C. To prepare samples for western blots and ELISA, the plates were slowly thawed and kept on ice with 100-150 μl of lysis buffer (50 mM Tris-HCl, pH7.5, 150 mM NaCl, 0.5% deoxycholate, 0.5% SDS, 1% Triton X-100, 1% Igepal, Complete™ (Roche) and Phospho-Stop™ (Roche)) on top. Then, the cells were scraped, pipetted and sheared through a 27G ¾″ needle. After that, the cell pellets were clarified by centrifugation at 16,100 rcf for 15 minutes at 4° C. For western blots, 4-12% gradient gels were used for SDS electrophoresis and the proteins were transferred to PVDF membranes. The membrane was hybridized with the antibody of interest according to the manufacturer's instructions. Chemoluminescent HRP-substrate from Amersham Biosciences was used for visualization. For the densitometry analysis the films were scanned at 2,400 dpi and analyzed by the Chemilmager5500 program (1D-Multi Line densitometry mode). […]

hES cells [3] = assay: Cell adhesion assay, 1 hour (Example 2); format: cell-based, human; conditions: not shown
Description: Tissue cell culture plates were coated overnight at 4° C. with sterile solutions of the ECM proteins, such as human recombinant LN-521, all at a concentration of 30 μg/ml (5 μg/cm^2). Control plates were coated with Matrigel according to the STEMCELL Technologies' instructions. Prior to use, dishes were pre-warmed in an incubator for one hour after which prewarmed O3 medium was added without additional washing of the dish. After applying a fresh LN-521 solution to a new dish, the remaining LN-521 solution could be used at least once more. All the adhesion, survival, and inhibition of survival experiments were carried out using fresh coating materials.
Briefly, 96-well plates were coated by extracellular matrix proteins as described above and blocked by O3 medium containing bovine serum albumin. The ES cells were plated at cell density of 50,000 cells/cm^2 onto extracellular matrix-coated plates and left to adhere for 1 hour in a cell incubator. After that the plates were washed 3 times with the medium to remove the non-adherent cells, and then the adherent cells were fixed for 20 minutes by 5% glutaraldehyde, stained by 0.1% Crystal Violet. (Kebo Lab, Spanga, Sweden, http://www.kebolab.se). After one hour and 3 washes with water, Crystal Violet was extracted with 10% acetic acid and quantified by measuring optical density at 570 nm. All the experiments were performed in quadruplicate.

human ES and iPS cells = assay: Long-term self-renewal culture on LN-521 (Example 2); format: cell-based
hES cell lines = assay: Karyotyping; format: cell-based, human; conditions: HS181 12 passages and H1 10 passages in O3 medium; H1 7 passages in TeSR2
Description: Karyotyping of the cell lines was carried out using standard Q-banding techniques. Samples of cells were treated with colcemid KaryoMAX (0.1 μg/ml; Gibco Invitrogen Corporation) for up to 4 hours, followed by dissociation with Trypsin/EDTA solution (Gibco Invitrogen Corporation). The cells were pelleted via centrifugation and re-suspended in pre-warmed 0.0375 M KCl hypotonic solution and incubated for 10 minutes. Following centrifugation, the cells were resuspended in fixative (3:1 methanol:acetic acid). Metaphase spreads were prepared on glass microscope slides and G-banded by brief exposure to trypsin and stained with 4:1 Gurr's/Leishmann's stain (Sigma-Aldrich Co.). A minimum of 10 metaphase spreads were analyzed and additional 20 were counted.

LN-521: protein formed by joining α5, β2 and γ1 laminin chains; human recombinant, produced in HEK293 cells
adhesion of human ES cells at 1 hour (human ES cells): roughly the same | number of mRNA transcripts of Oct4 and Nanog compared with Matrigel (Oct4 and Nanog mRNA): higher numbers of transcripts | survival of Y-27632 treated cells compared with Matrigel (hES cells [1]; 10 μM of Y-27632, 40,000 cells per 1 cm^2): survived better | survival compared with LN-511 (hES cells [1]; 24 hours, absence of ROCK inhibitor): significantly higher | survival after 24 hours relative to Matrigel (hES cells [1]; dissociated hES cells): approximately 20 times | survival relative to Matrigel (hES cells [1]; exogenous bFGF removed from the O3 medium): 20 times | survival 24 hours after plating (hES cells [1]; medium lacking bFGF, LiCl, GABA, pipecolic acid and TGFβ): survived | survival 24 hours after plating (hES cells [1]; single cell suspension, O3 medium, absence of ROCK inhibitor): did so as single cells | phosphorylation of MLC compared with cells on Matrigel and LN-111 [2]: even higher | spreading of the cells after one hour compared with Matrigel or LN-111 (hES cells [3]): clearly better | passages cultured (human ES and iPS cells; ChiPSW cells, mTeSR1): 3 passages | passages cultured (human ES and iPS cells; CutB1.2 iPS cells, mTeSR1): 5 passages | passages of proliferation (human ES and iPS cells; H1 cells, O3 medium (6 months)): ≥ 15 passages | passages cultured (human ES and iPS cells; H1 cells, TeSR2 (5 months)): 12 passages | passages of proliferation (human ES and iPS cells; HS181 cells, O3 medium (9 months)): at least 24 passages | passages of proliferation (human ES and iPS cells; HS401 cells, O3 medium (2 months)): ≥ 5 passages | passages cultured (human ES and iPS cells; HS401 cells, TeSR2 (1.5 months)): 4 passages | karyotype (hES cell lines): normal
